Reference: patent publication US12226409B2, “Treatment of hepatocellular carcinoma” (Eisai R&D Management Co., Ltd., priority 2017, dated 2025)

Key:
Assay type in all cases: in vitro ADME
CYP3A = experiment: In vitro CYP induction
CYP2D6 = CYP2D6 (Homo sapiens, UniProt P10635); experiment: In vitro CYP inhibition
CYP2C9 = CYP2C9 (Homo sapiens, UniProt P11712); experiment: In vitro CYP inhibition
Sequence of CYP2C9 (P11712 whole entry): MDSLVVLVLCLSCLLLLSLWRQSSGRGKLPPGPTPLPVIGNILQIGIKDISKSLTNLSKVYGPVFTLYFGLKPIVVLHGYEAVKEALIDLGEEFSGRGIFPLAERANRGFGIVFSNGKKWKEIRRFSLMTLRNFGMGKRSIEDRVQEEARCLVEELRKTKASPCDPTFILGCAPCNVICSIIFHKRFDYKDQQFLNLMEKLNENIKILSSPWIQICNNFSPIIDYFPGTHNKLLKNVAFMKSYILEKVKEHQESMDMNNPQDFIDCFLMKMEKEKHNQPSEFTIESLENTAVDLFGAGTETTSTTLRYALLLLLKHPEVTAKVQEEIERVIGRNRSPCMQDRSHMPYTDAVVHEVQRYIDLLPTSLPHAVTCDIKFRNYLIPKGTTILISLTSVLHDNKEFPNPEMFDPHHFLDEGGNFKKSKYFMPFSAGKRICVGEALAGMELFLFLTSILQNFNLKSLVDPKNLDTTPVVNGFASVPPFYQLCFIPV

Sequence of CYP2D6 (P10635 whole entry): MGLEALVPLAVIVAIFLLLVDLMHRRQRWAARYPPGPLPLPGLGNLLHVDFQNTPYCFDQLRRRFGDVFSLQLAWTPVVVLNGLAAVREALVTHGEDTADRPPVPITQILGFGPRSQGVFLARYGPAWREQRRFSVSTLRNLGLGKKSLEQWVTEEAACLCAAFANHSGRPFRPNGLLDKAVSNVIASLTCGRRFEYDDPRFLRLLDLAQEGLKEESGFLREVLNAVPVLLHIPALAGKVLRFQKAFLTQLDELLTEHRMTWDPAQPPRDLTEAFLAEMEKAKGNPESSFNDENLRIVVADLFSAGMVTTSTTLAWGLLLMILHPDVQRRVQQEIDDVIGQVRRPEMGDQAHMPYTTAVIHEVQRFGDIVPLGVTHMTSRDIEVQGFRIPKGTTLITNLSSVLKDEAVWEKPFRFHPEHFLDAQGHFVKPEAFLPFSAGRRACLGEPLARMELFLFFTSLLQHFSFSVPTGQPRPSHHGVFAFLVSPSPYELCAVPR

COc1cc2nccc(Oc3ccc(NC(=O)NC4CC4)c(Cl)c3)c2cc1C(N)=O [Lenvatinib, 4-(3-chloro-4(cyclopropylaminocarbonyl)aminophenoxy)-7-methoxy-6-quinolinecarboxamide]
induction of CYP3A (CYP3A): induces | inhibition of CYP2D6 (CYP2D6): inhibits | inhibition of CYP2C9 (CYP2C9): inhibits
